The record followed here is patent US8957061B2, “Azetidine derivatives as sphingosine 1-phosphate (S1P) receptor modulators” (Allergan, Inc., priority 2013, dated 2015).

For this assay, the target named is T1, human S1P1 receptor (Homo sapiens, UniProt P21453).
T1 construct: expressed in transfected cells; membranes used
Put plainly: GTP γ35S binding assay for S1P1 activity. Type of assay: biochemical. The settings on record: activity potency, S1P1 receptor from GTP γ35S; membranes of cells stably expressing the S1P1 receptor; test concentrations 0.08 to 5,000 nM. The method, then:
Compounds were synthesized and tested for S1P1 activity using the GTP γ^35S binding assay. These compounds may be assessed for their ability to activate or block activation of the human S1P1 receptor in cells stably expressing the S1P1 receptor. GTP γ^35S binding was measured in the medium containing (mM) HEPES 25, pH 7.4, MgCl2 10, NaCl 100, dithiothreitol 0.5, digitonin 0.003%, 0.2 nM GTP γ^35S, and 5 μg membrane protein in a volume of 150 μl. Test compounds were included in the concentration range from 0.08 to 5,000 nM unless indicated otherwise. Membranes were incubated with 100 μM 5′-adenylylimidodiphosphate for 30 min, and subsequently with 10 μM GDP for 10 min on ice. Drug solutions and membrane were mixed, and then reactions were initiated by adding GTP γ^35S and continued for 30 min at 25° C. Reaction mixtures were filtered over Whatman GF/B filters under vacuum, and washed three times with 3 mL of ice-cold buffer (HEPES 25, pH7.4, MgCl2 10 and NaCl 100). Filters were dried and mixed with scintillant, and counted for ^35S activity using a β-counter. Agonist-induced GTP γ^35S binding was obtained by subtracting that in the absence of agonist. Binding data were analyzed using a non-linear regression method.
Background: GTPγS resists hydrolysis and so accumulates on activated G proteins.

T1 sequence (P21453 whole entry): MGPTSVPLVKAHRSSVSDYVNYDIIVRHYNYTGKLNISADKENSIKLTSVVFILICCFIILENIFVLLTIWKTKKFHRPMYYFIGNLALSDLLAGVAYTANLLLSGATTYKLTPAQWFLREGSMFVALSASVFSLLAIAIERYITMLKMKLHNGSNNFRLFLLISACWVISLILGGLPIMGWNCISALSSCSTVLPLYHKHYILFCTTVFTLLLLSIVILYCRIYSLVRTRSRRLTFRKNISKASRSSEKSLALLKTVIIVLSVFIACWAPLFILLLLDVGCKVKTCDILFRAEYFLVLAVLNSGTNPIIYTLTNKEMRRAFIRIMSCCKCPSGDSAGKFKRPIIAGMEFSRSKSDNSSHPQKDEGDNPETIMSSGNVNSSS

`Cc1ccc(CC(CCC[S+]([O-])c2ccc(CN3CC(C(=O)O)C3)cc2)c2cccc(Cl)c2)cc1C` (stereo not shown) [Compound 1, 1-(4-{[4-(3-Chlorophenyl)-5-(3,4-dimethylphenyl)pentyl]sulfinyl}benzyl)azetidine-3-carboxylic acid] gave a 50% effective concentration (EC50) of 0.121 µM.

What is called EC50 is the concentration needed to bring the measured effect to its halfway point.
